Assay results: publication PMC2994747, “Molecular Characterization of c-Abl/c-Src Kinase Inhibitors Targeted against Murine Tumour Progenitor Cells that Express Stem Cell Markers” (PLoS ONE, 2010)

How the values were obtained:
c-Abl = target: T1, c-Abl (Homo sapiens, UniProt P00519); test: Abl filter-binding kinase assay (Abtide, [γ-32P]ATP); assay type: biochemical; conditions: isolated Abl; calculated from ID50, ATP-competitive; E0 0.005, S0 0.012 µM
T1 construct: His tag; purchased Upstate (Lake Placid, NY, USA)
Description: Baculovirus-produced recombinant purified his-tagged active against human Src and Abl were purchased from Upstate (Lake Placid, NY, USA).
Src activity was measured in a filter-binding assay using the Src Assay Kit (Upstate, Lake Placid, NY, USA), according to the manufacturer's protocol, using the specific Src peptide substrate [[…]] in the presence of 0.125 pmol of Src and 0.160 pmol of [γ-^32P]ATP. Abl activity was measured in a filter-binding assay using an Abl specific peptide substrate (Abtide, Upstate). Reaction conditions were (in a final volume of 10 µl): 25 mM Tris-HCl pH 7.5, 1 mM DTT, 0.012 µM [γ-^32P]ATP, 0.022 µM c-Abl. Reactions were incubated 10 min at 30°C.The samples (9 µl) were spotted on paper cellulose filters which were washed according to the manufacturer's protocol. Filter-bound radioactivity was measured by liquid scintillation with a Microbeta-Trilux apparatus (PerkinElmer, Waltham, MA, USA).
The ID50 were converted to Ki according to a competitive mechanism with respect to the substrate ATP. […] Since (i) the ATP concentration was limiting, i.e., [ATP], Km(ATP), and (ii) the enzyme concentration was not negligible with respect to the ATP concentration, the classical Cheng-Prusoff relationship was not applicable. Consequently, Ki values were calculated according to [drawing 3] (2) where S0 is the concentration of the competing substrate (ATP) and E0 is the concentration of the enzyme. Each experiment was done in triplicate and mean values were used for the interpolation. Curve fitting was performed with the program GraphPad Prism.

HepG2 [1] = test: Whole genome expression analysis (Affymetrix microarray); assay type: cell-based, human; conditions: IC50 concentration, 96 h
Description: (§1) The cells were harvested and RNA was isolated using RNeasy Mini Kit (Qiagen, Hilden, Germany) according to the instructions of the manufacturer. The isolated RNA (250 ng) was processed further using standard protocols as described recently with the exception of the 3′ IVT Express Kit (Affymetrix, High Wycombe, UK) that was utilized according to instructions. Quality control of cRNA was done with the Agilent 2100 Bioanalyzer (Agilent Tech according to manufacturer's protocols. Following fragmentation, cRNA of each sample was hybridized to Affymetrix GeneChip® Mouse Genome 430 2.0 or Human Genome U133 Plus 2.0 and scanned with an Affymetrix 3000 7G scanner.
(§2) The resultant data was normalized by Probe Logarithmic Intensity Error Estimation (PLIER) algorithm. Statistical analysis was carried out with the ArrayTrack software (National Center for Toxicological Research/FDA, Jefferson, AR, USA) using SAM algorithm.

CaCo2 = test: as above; assay type: cell-based, human; conditions: IC50 concentration, 96 h
Description: as §1, §2

A549 = test: as above; assay type: cell-based, human; conditions: IC50 concentration, 96 h
Description: as §1, §2

HepG2 [2] = test: Western blot, semi-quantitative protein expression; assay type: cell-based, human
Description: For the Western Blot analysis, cells were rinsed and lysed as previously described. An amount of 25 µg protein was used for SDS-PAGE. Antibodies for c-Abl (sc-131), Actin (sc-1616), Cdc2-p34 (sc-8395), EPS15 (sc-1840), FAK (sc-558), c-Fos (sc-52), p38 (sc-7972), p53 (sc-6243) and STAT5 (sc-835x) were obtained from Santa Cruz (Santa Cruz Biotechnology, Heidelberg, Germany), while c-Src (2109) and phospho-Src Y416 (2101) were purchased from Cell Signaling (Cell Signaling Technology, Frankfurt a. M., Germany). The EGFR (06-847), phospho-EGFR Y992 (07-821) and phospho-EGFR Y1045 (04-284) stem from Upstate (Upstate, Schwalbach, Germany) and the hnRNP-K (A300-676A) from Bethyl Labs (Bethyl Laboratories, Montgomery, Texas, USA). Finally p73 (IMG-246) was supplied by Imgenex (Imgenex, Hamburg, Germany). Depending on the primary antibody the secondary antibodies were either horseradish peroxidase-conjugated anti-mouse (AP 160P), anti-rabbit (AP 132P) or anti-sheep (AP 147P) (Chemicon, Schwalbach, Germany).
Semi-quantitative analysis were carried out with Kodak 1D Image Analysis Software in reference to the vehicle treated control cells (see supplementary table S7).

[3] = test system: murine and human cell lines; test: Whole genome expression analysis, statements over several cell lines; assay type: cell-based
Description: as §1, §2

T1 sequence (P00519 whole entry): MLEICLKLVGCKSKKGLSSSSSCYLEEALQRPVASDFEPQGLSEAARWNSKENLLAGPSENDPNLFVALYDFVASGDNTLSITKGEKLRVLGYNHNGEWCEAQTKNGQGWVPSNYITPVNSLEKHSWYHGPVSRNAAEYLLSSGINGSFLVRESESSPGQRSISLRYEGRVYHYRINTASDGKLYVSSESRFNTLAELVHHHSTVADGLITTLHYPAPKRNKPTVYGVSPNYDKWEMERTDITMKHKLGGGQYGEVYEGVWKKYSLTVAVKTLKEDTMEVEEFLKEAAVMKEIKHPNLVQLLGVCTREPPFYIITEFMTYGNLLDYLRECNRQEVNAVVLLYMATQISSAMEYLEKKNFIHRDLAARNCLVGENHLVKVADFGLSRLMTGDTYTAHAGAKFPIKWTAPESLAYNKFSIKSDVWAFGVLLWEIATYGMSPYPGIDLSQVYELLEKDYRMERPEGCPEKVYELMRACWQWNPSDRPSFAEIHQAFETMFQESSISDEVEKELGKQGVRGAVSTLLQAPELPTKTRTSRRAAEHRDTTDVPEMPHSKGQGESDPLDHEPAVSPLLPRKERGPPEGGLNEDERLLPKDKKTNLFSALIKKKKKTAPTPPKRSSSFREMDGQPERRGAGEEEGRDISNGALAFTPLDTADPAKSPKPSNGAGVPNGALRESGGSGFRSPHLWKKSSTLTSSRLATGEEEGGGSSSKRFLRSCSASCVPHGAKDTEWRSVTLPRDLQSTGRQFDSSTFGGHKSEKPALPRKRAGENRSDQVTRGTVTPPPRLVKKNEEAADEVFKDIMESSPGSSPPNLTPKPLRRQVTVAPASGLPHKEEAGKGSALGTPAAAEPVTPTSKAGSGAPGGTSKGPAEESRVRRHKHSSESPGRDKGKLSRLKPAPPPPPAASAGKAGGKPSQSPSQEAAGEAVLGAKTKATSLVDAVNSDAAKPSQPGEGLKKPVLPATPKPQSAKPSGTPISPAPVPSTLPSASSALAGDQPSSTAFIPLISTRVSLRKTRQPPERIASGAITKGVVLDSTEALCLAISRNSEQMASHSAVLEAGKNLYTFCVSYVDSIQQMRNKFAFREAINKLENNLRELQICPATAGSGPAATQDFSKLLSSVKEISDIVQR

With Clc1cccc(Nc2nc(SC3CCCC3)nc3c2cnn3CC(Cl)c2ccccc2)c1 (stereo not shown) [Si135] the Ki (c-Abl) was 0.12 µM, the “Significantly differentially regulated genes, downregulated (number)” value (HepG2 [1]; SAM FDR<0.01, FC>2) was 0 and the “Significantly differentially regulated genes, upregulated (number)” value (HepG2 [1]; SAM FDR<0.01, FC>2) was 87. The Dusp1 gene expression (HepG2 [1]; vs control) was 1.56 log2 of fold change, the Hnrnpr gene expression (HepG2 [1]; vs control) was 1.08 log2 of fold change and the Jun gene expression (HepG2 [1]; vs control) was 1.34 log2 of fold change. For the same molecule, the Pik3ca gene expression (HepG2 [1]; vs control) was 2.01 log2 of fold change, the “Ptk2 (FAK) gene expression” value (HepG2 [1]; vs control) was 1.20 log2 of fold change and the “Significantly differentially regulated genes, downregulated (number)” value (CaCo2; SAM FDR<0.01, FC>2) was 55. The “Significantly differentially regulated genes, upregulated (number)” value (CaCo2; SAM FDR<0.01, FC>2) was 193, the Birc5 gene expression (CaCo2; vs control) was -4.36 log2 of fold change and the Cav1 gene expression (CaCo2; vs control) was 1.30 log2 of fold change. For the same molecule, the Cdkn1a gene expression (CaCo2; vs control) was 1.00 log2 of fold change, the Ceacam1 gene expression (CaCo2; vs control) was 1.47 log2 of fold change and the Ceacam6 gene expression (CaCo2; vs control) was 1.25 log2 of fold change. For the same molecule, the Cxcl2 gene expression (CaCo2; vs control) was 1.16 log2 of fold change, the Dusp1 gene expression (CaCo2; vs control) was 1.05 log2 of fold change and the Flnc gene expression (CaCo2; vs control) was 1.43 log2 of fold change. For the same molecule, the Itga2 gene expression (CaCo2; vs control) was 1.02 log2 of fold change, the Jun gene expression (CaCo2; vs control) was 1.51 log2 of fold change and the Lamc2 gene expression (CaCo2; vs control) was 1.27 log2 of fold change. The Mtss1 gene expression (CaCo2; vs control) was -4.64 log2 of fold change, the Ptn gene expression (CaCo2; vs control) was -4.50 log2 of fold change and the Tgfb1i1 gene expression (CaCo2; vs control) was 1.67 log2 of fold change. For the same molecule, the “Thbs (thrombospondin 1) gene expression” value (CaCo2; vs control) was -4.36 log2 of fold change, the Tnc gene expression (CaCo2; vs control) was -6.40 log2 of fold change and the Tuba1a gene expression (CaCo2; vs control) was 2.27 log2 of fold change. The “Significantly differentially regulated genes, downregulated (number)” value (A549; SAM FDR<0.01, FC>2) was 17, the “Significantly differentially regulated genes, upregulated (number)” value (A549; SAM FDR<0.01, FC>2) was 61 and the Cdcp1 gene expression (A549; vs control) was 1.23 log2 of fold change. For the same molecule, the Ceacam6 gene expression (A549; vs control) was 1.63 log2 of fold change, the Il8 gene expression (A549; vs control) was 1.20 log2 of fold change and the Lamb3 gene expression (A549; vs control) was 1.08 log2 of fold change. The Ptgs2 gene expression (A549; vs control) was 1.05 log2 of fold change, the Vcan gene expression (A549; vs control) was -4.42 log2 of fold change and the Actin protein expression (HepG2 [2]) was 68. The Cdc2-p34 protein expression (HepG2 [2]) was 9, the “EGFR Y992-p protein expression” value (HepG2 [2]) was 8 and the “EGFR Y1045-p protein expression” value (HepG2 [2]) was 28. For the same molecule, the EGFR protein expression (HepG2 [2]) was 261, the EPS15 protein expression (HepG2 [2]) was 48 and the FAK protein expression (HepG2 [2]) was 130. It also gave an STAT5 protein expression (HepG2 [2]) of 61, a c-Abl protein expression (HepG2 [2]) of 34 and a c-Fos protein expression (HepG2 [2]) of 43. The “c-Src Y416-p protein expression” value (HepG2 [2]) was 16, the c-Src protein expression (HepG2 [2]) was 78 and the hnRNP-K protein expression (HepG2 [2]) was 70. For the same molecule, the p38 protein expression (HepG2 [2]) was 51, the p53 protein expression (HepG2 [2]) was 19 and the “Genes regulated in common in A549 and CaCo2 (number)” value ([3]; Fig. 4A) was 13. The “Significantly regulated genes (number)” value ([3]; IC50 concentration, 96 h, cell line not stated) was “approx. 150”.
